Where two headings read alike, the source gives them in different places.
Experiments:
[1] = molecular target: T1, FLK-1 receptor (Mus musculus, UniProt P35918); experiment: FLK-1 ELISA in FLK-1/NIH3T3 cells; assay type: cell-based
T1 construct: expressed in transfected cells; host or cells: NIH3T3 C7 #3

[2] = molecular target: T2, EGFR (Homo sapiens, UniProt P00533); experiment: EGF-Induced BrdU Incorporation Assay in 3T3/EGFR cells; assay type: cell-based; conditions: EGF ligand; read-out: Mitogenesis in 3T3/EGFR Cells, BrdU Incorporation, EGFR EGF Ligand IC50
T2 construct: expressed in transfected cells; host or cells: NIH 3T3/C7 (3T3/EGFRc7)
T2 sequence (P00533 25-1210): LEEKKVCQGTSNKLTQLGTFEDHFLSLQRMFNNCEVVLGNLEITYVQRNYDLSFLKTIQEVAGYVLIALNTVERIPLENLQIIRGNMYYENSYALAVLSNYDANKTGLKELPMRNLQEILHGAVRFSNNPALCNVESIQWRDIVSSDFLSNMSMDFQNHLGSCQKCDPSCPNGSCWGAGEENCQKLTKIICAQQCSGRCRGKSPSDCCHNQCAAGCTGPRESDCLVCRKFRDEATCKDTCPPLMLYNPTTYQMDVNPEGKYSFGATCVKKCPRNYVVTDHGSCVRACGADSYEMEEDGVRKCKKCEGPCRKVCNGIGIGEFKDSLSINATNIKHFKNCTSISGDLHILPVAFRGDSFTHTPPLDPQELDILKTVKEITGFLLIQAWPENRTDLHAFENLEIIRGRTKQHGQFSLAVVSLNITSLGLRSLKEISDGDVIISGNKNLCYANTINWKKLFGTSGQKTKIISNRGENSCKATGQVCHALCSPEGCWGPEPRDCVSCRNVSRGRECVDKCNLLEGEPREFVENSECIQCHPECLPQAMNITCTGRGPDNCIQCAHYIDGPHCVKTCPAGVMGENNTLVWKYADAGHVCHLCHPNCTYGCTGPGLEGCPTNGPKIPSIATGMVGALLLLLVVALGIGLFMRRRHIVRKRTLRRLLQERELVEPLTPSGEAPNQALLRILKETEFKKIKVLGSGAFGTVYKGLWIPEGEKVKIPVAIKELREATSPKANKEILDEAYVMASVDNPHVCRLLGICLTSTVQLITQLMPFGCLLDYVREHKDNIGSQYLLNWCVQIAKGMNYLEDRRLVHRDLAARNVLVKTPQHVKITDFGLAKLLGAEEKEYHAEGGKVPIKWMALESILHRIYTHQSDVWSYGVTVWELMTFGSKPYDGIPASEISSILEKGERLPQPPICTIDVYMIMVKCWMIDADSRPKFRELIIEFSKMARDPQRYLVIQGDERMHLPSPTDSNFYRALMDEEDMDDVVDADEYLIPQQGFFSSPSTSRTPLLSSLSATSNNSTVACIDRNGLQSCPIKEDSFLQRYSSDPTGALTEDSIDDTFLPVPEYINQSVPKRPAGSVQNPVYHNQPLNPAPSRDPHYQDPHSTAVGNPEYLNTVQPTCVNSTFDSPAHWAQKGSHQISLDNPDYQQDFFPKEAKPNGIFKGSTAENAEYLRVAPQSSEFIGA
Protocol: Assay 2: EGF-Induced BrdU Incorporation Assay
Protocol • (1) 3T3 engineered cell line: 3T3/EGFRc7 • (2) Cells are seeded at 8000 cells/well in 10% CS, 2 mM Gln in DMEM, in a 96 well plate. […] The negative control wells receive serum free DMEM with 0.1% BSA only; the positive control cells receive the ligand (EGF) but no test compound. […] FixDenat solution is added (50 μl/well) and the plates are incubated at room temperature for 45 minutes on a plate shaker. • (7) The FixDenat solution is thoroughly removed by decanting and tapping the inverted plate on a paper towel. Milk is added (5% dehydrated milk in PBS, 200 μl/well) as a blocking solution and the plate is incubated for 30 minutes at room temperature on a plate shaker. • (8) The blocking solution is removed by decanting and the wells are washed once with PBS. Anti-BrdU-POD solution (1:100 dilution in PBS, 1% BSA) is added (100 μl/well) and the plate is incubated for 90 minutes at room temperature on a plate shaker. • (9) The antibody conjugate is thoroughly removed by decanting and rinsing the wells 5 times with PBS, and the plate is dried by inverting and tapping on a paper towel. • (10) TMB substrate solution is added (100 μl/well) and incubated for 20 minutes at room temperature on a plate shaker until color development is sufficient for photometric detection. • (11) The absorbance of the samples are measured at 410 nm (in “dual wavelength” mode with a filter reading at 490 nm, as a reference wavelength) on a Dynatech ELISA plate reader.

[3] = system: HUV-EC-C cells; experiment: HUV-EC-C assay, VEGF-induced [3H]thymidine incorporation; assay type: cell-based, human; conditions: VEGF-stimulated HUV-EC cells, read-out: Mitogenesis in Endothelial Cells, [3H] Thymidine Incorporation, HUV-EC Assay, VEGF
Protocol: (§1) Repeat the wash two more times with D-PBS, resuspend the cells in about 1 ml assay medium/15 cm^2 of tissue culture flask.
(§2) Add cells to 96-well flat-bottom plates at 100 μl/well or 0.8-1.0×10^4 cells/well; incubate ˜24 h at 37° C., 5% CO2.
(§3) Use the same assay medium as mentioned in day 0, step 2 above. Titrations are made by adding 90 μl/well of drug at 200 μM (4× the final well concentration) to the top well of a particular plate column. Since the stock drug concentration-is usually 20 mM in DMSO, the 200 μM drug concentration contains 2% DMSO.
(§4) Therefore, diluent made up to 2% DMSO in assay medium (F12K+0.5% fetal bovine serum) is used as diluent for the drug titrations in order to dilute the drug but keep the DMSO concentration constant. Add this diluent to the remaining wells in the column at 60 μl/well. Take 60 μl from the 120 μl of 200 μM drug dilution in the top well of the column and mix with the 60 μl in the second well of the column. Take 60 μl from this well and mix with the 60 μl in the third well of the column, and so on until two-fold titrations-are completed. When the next-to-the-last well is mixed, take 60 μl of the 120 μl in this well and discard it. Leave the last well with 60 μl of DMSO/media diluent as a non-drug-containing control. […] 9 columns of titrated drug, enough for triplicate wells each for 1) VEGF (obtained from Pepro Tech Inc., catalogue no. 100-200, 2) endothelial cell growth factor (ECGF) (also known as acidic fibroblast growth factor, or aFGF) (obtained from Boehringer Mannheim Biochemica, catalogue no. […] ECGF comes as a preparation with sodium heparin.
(§5) Transfer 50 μl/well of the drug dilutions to the 96-well assay plates containing the 0.8-1.0×10^4 cells/100 μl/well of the HUV-EC-C cells from day 0 and incubate ˜2 h at 37° C., 5% CO2.
(§6) In triplicate, add 50 μl/well of 80 μg/ml VEGF, 20 ng/ml ECGF, or media control to each drug condition. As with the drugs, the growth factor concentrations are 4× the desired final concentration. Use the assay media from day 0 step 2 to make the concentrations of growth factors.
Freeze plates overnight at −20° C.

[4] = system: HUV-EC-C cells; experiment: HUV-EC-C assay, a-FGF (ECGF)-induced [3H]thymidine incorporation; assay type: cell-based, human; conditions: a-FGF-stimulated HUV-EC cells, read-out: Mitogenesis in Endothelial Cells, [3H] Thymidine Incorporation, HUV-EC Assay, a-FGF
Protocol: as §1, §2, §3, §4, §5, §6
Freeze plates overnight at −20° C.

[5] = ELISA, FLK-1/NIH3T3 cells, VEGF stimulated

T1 sequence (P35918 20-1345): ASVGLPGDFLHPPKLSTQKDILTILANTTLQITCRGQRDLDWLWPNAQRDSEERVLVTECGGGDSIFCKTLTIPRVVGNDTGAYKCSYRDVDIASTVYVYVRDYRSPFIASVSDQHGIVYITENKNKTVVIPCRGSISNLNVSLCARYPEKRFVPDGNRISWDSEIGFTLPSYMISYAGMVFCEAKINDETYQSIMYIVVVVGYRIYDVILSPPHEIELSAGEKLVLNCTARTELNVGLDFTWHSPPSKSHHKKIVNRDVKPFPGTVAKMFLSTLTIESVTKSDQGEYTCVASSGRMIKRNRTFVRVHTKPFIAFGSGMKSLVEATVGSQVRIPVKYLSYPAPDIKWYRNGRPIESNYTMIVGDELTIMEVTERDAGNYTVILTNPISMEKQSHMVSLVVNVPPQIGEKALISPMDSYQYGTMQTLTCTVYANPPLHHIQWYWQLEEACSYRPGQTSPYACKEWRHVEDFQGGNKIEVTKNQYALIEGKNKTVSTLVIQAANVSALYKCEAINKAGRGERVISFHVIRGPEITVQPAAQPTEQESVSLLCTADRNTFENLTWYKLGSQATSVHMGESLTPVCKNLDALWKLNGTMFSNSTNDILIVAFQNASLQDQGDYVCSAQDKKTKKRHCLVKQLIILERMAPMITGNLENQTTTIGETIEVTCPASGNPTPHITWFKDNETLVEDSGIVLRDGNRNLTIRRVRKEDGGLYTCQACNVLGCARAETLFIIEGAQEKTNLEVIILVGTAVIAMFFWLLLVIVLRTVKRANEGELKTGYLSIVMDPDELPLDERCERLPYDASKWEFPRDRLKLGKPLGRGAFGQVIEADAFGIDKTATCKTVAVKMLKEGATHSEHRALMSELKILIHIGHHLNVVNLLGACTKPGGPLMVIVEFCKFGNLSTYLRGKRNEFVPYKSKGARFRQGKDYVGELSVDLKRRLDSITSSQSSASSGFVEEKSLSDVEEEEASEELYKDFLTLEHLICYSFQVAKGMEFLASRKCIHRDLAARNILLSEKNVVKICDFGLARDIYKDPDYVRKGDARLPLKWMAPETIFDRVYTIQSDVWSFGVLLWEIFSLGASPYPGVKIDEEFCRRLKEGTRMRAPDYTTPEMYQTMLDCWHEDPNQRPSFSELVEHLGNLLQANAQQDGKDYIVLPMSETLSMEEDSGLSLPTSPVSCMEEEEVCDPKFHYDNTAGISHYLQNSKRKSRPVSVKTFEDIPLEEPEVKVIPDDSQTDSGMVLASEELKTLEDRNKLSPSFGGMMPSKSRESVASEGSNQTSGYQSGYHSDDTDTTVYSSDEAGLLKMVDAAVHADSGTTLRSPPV

Compound | IC50 [1, 5] | also measured
O=C1Nc2ccccc2C1=Cc1ccc(O)cc1Cl [SU4932, 3-(2-chloro-4-hydroxybenzylidenyl)-2-indolinone] | 2.2 µM | –
CCOc1ccccc1C=C1C(=O)Nc2ccccc21 [SU5204, 3-(2-Ethoxybenzylidenyl]-2-indolinone] | 4 µM | –
O=C1Nc2ccccc2C1=Cc1c(Br)cnn1Cc1ccc(Cl)cc1 [SU5475, 3-[(4-Bromo-1-(4-chlorobenzyl)pyrazol-5-yl)methylene]-2-indolinone] | – | IC50 [2]: 48 µM
O=C1Nc2ccc(Cl)cc2C1=Cc1ccc(N2CCOCC2)cc1 [SU4983, 5-Chloro-3-(4-(morpholine-4-yl)benzylidenyl)-2-indolinone] | 4.1 µM | –
CN(C)c1ccc(C=C2C(=O)Nc3ccccc32)cc1 [SU4312, 3-(4-Dimethylaminobenzylidenyl)-2-indolinone] | 0.8 µM | –
COC(=O)CCc1c(C)c[nH]c1C=C1C(=O)Nc2ccccc21 [SU5407, 3-{[4-(2-methoxycarbonylethyl)-3-methylpyrrol-5-yl]methylene}-2-indolinone] | 1.1 µM | IC50 [2]: 100 µM
O=C1Nc2ccccc2C1=Cc1ccc(N2CCOCC2)cc1 [SU4981, 3-[4-(Morpholin-4-yl)benzylidenyl]-2-indolinone] | 2.1 µM | IC50 [2]: 20 µM
COc1ccc(OC)c(C=C2C(=O)Nc3ccccc32)c1 [SU4793, 3-(2,5-Dimethoxybenzylidenyl)-2-indolinone] | 4.2 µM | –
CC(=O)Nc1ccc(C=C2C(=O)Nc3ccccc32)cc1 [SU4799, 3-(4-acetamidobenzylidenyl)-2-indolinone] | 9 µM | –
Cc1csc(C=C2C(=O)Nc3ccccc32)c1 [SU5401, 3-[(4-Methylthien-2-yl)methylene]-2-indolinone] | 2.9 µM | –
O=C1Nc2ccccc2C1=Cc1ccc(-c2cc(C(F)(F)F)cc(C(F)(F)F)c2)o1 [SU5217] | – | IC50 [3]: 9.6 µM; IC50 [4]: 10.5 µM
CN(C)c1c(C=C2C(=O)Nc3ccccc32)cc(C=C2C(=O)Nc3ccccc32)c(N(C)C)c1C#N [SU5218, 2,6-Di-(dimethylamino)-3,5-di-[(indolin-2-one-3-ylidenyl)methyl]-phenylcyanide] | 6.4 µM | IC50 ([3]; Homo sapiens, HUVEC): 2.4 µM; IC50 ([4]; Homo sapiens, HUVEC): 2.7 µM
Cc1cc[nH]c1C=C1C(=O)Nc2ccccc21 [SU5404, 3-[(3-Methylpyrrol-2-yl)methylene]-2-indolinone] | 0.24 µM | –
O=C1Nc2ccc(Cl)cc2C1=Cc1ccc(Br)cc1 [SU4972, 3-(4-Bromobenzylidenyl)-5-chloro-2-indolinone] | – | IC50 [4]: 1.4 µM
O=C1Nc2ccccc2C1=Cc1cnc[nH]1 [SU5473, 3-[(Imidazol-4-yl)methylene]-2-indolinone] | 1.5 µM | IC50 ([3]; Homo sapiens, HUVEC): 1.2 µM; IC50 ([4]; Homo sapiens, HUVEC): 14.1 µM; IC50 [2]: 54 µM
O=C1Nc2ccccc2C1=Cc1n[nH]cc1Cl [SU5474, 3-[(4-Chloropyrazol-3-yl)methylene]-2-indolinone] | 7.4 µM | –
O=C1Nc2ccccc2C1=Cc1ccc([N+](=O)[O-])o1 [SU5432, 3-[(2-Nitrofuran-5-yl)methylene]-2-indolinone] | 22.8 µM | –
CSc1ccc(C=C2C(=O)Nc3ccccc32)s1 [SU5419, 3-[(2-Methylmercaptothien-5-yl)methylene]-2-indolinone] | 2.3 µM | –
Cc1[nH]c(C=C2C(=O)Nc3ccccc32)c(Br)c1Br [SU5403, 3-[(3,4-Dibromo-5-methylpyrrol-2-yl)methylene]-2-indolinone] | 1.8 µM | –
O=C1Nc2ccccc2C1=Cc1ccc(Cl)c(Cl)c1 [SU5201, 3-(3,4-Dichlorobenzylidenyl)-2-indolinone] | – | IC50 [3]: 2.5 µM; IC50 [4]: 2.3 µM
COc1ccccc1C=C1C(=O)Nc2ccccc21 [SU4949, 3-(2-Methoxybenzylidenyl)-2-indolinone] | – | IC50 [3]: 3.4 µM; IC50 [4]: 3.7 µM
O=C1Nc2ccccc2C1=Cc1cccn1-c1ccc(Cl)cc1 [SU5462] | – | IC50 [3]: 0.5 µM; IC50 [4]: 0.8 µM
Cc1c[nH]c(C=C2C(=O)Nc3ccccc32)c1C [SU5406, 3-[(3,4-Dimethylpyrrol-2-yl)methylene]-2-indolinone] | 0.17 µM | –
CCc1c(C=C2C(=O)Nc3ccccc32)[nH]c(C)c1C [SU5453, 3-[(4,5-Dimethyl-3-ethylpyrrol-2-yl)methylene]-2-indolinone] | 0.14 µM | –
Cc1cc(C=C2C(=O)Nc3ccccc32)[nH]n1 [SU5472, 3-[(3-Methylpyrazol-5-yl)methylene]-2-indolinone] | 8.7 µM | –
Cc1cnc(C=C2C(=O)Nc3ccccc32)[nH]1 [SU5468, 3-[(5-Methylimidazol-2-yl)methylene]-2-indolinone] | 2.7 µM | –
CCc1c(C=C2C(=O)Nc3ccccc32)[nH]c(C(=O)O)c1C [SU5455, 3-[(5-Carboxy-3-ethyl-4-methylpyrrol-2-yl)methylene]-2-indolinone] | 36.2 µM | –

Compound | IC50 [1, 5] | also measured
O=C1Nc2ccccc2C1=Cc1ccc(I)o1 [SU5409] | – | IC50 [3]: 26 µM
Cc1ccc(C=C2C(=O)Nc3ccccc32)o1 [SU5430, 3-[(2-Methylfuran-5-yl)methylene]-2-indolinone] | 73.4 µM | –
O=C1Nc2ccccc2C1=Cc1cccs1 [SU5208, 3-[(Thien-2-yl)methylene]-2-indolinone] | 4.7 µM | –
CCOC(=O)c1c(C)[nH]c(C=C2C(=O)Nc3ccccc32)c1C [SU5408, 3-[(2,4-Dimethyl-3-ethoxycarbonylpyrrol-5-yl)methylene]-2-indolinone] | 0.07 µM | –
O=C1Nc2ccccc2C1=Cc1ccc(N2CCCC2)cc1 [SU5466, 3-[4-(Pyrrolidin-1-yl)benzylidenyl]-2-indolinone] | 1.6 µM | IC50 [2]: 17 µM
O=C1Nc2ccccc2C1=Cc1ccc(F)cc1 [SU5205, 3-(4-Fluorobenzylidenyl)-2-indolinone] | 9.6 µM | –
Cc1cc(C=C2C(=O)Nc3ccccc32)oc1C [SU5421, 3-[(2,3-Dimethylfuran-5-yl)methylene]-2-indolinone] | 4.6 µM | –
Cn1cccc1C=C1C(=O)Nc2ccccc21 [SU5464, 3-[(1-Methylpyrrol-2-yl)methylene]-2-indolinone] | 20.3 µM | IC50 [2]: 95 µM
O=C1Nc2ccccc2C1=Cc1sccc1Br [SU5418, 3-[(3-Bromothiene-2-yl)methylene]-2-indolinone] | 15.4 µM | –
COc1cccc(C=C2C(=O)Nc3ccccc32)c1OC [SU4794, 3-(2,3-dimethoxybenzylidenyl)-2-indolinone] | 11.8 µM | –
CCOC(=O)CCc1c(C=C2C(=O)Nc3ccccc32)[nH]c(C(=O)OCC)c1CC(=O)OCC [SU5465, 3-[(5-Ethoxycarbonyl-3-ethoxycarbonylethyl-4-ethoxylcarbonylmethylpyrrol-2-yl)methylene]-2-indolinone] | – | IC50 [2]: 50 µM
CCc1ccc(C=C2C(=O)Nc3ccccc32)o1 [SU5431] | 41.2 µM | –
Cc1ccsc1C=C1C(=O)Nc2ccccc21 [SU5427, 3-[(3-Methylthien-2-yl)methylene]-2-indolinone] | 4.5 µM | –
Cc1c(C=O)[nH]c(C=C2C(=O)Nc3ccccc32)c1C [SU5405, 3-[(3,4-Dimethyl-2-formylpyrrole-5-yl)methylene)-2-indolinone] | 23.8 µM | –
CC(=O)Nc1ccc(C=C2C(=O)Nc3ccccc32)cc1 [SU4944, 3-(4-Acetylaminobenzylidenyl)-2-indolinone] | 8.5 µM | –
Cc1c(CCC(=O)O)c[nH]c1C=C1C(=O)Nc2ccccc21 [SU5402, 3-[(3-(2-carboxyethyl)-4-methylpyrrol-5-yl)methylene]-2-indolinone] | 0.4 µM | –
CCCCN(CCCC)c1ccc(C=C2C(=O)Nc3ccccc32)cc1 [SU4979, 3-(4-Di-n-butylaminobenzylidenyl)-2-indolinone] | 20.9 µM | –
Cc1ccc(C=C2C(=O)Nc3ccccc32)s1 [SU5424, 3-[(2-Methylthien-5-yl)methylene]-2-indolinone] | 2.4 µM | –
CCOC(=O)c1c[nH]c(C=C2C(=O)Nc3ccccc32)c1C [SU5463] | 0.18 µM | IC50 [2]: 23 µM
O=C1Nc2ccccc2C1=Cc1ccc(Br)s1 [SU5425, 3-[(2-Bromothiene-5-yl)methylene]-2-indolinone] | 51.4 µM | –
CN(C)c1ccc(C=C2C(=O)Nc3ccc(Cl)cc32)cc1 [SU4967, 5-Chloro-3-(4-dimethylaminobenzylidenyl)-2-indolinone] | 11.2 µM | IC50 [2]: 60 µM
O=C1Nc2ccccc2C1=Cc1ccco1 [SU4798, 3-[(furan-2-yl)methylene]-2-indolinone] | 28.8 µM | –
COc1ccc(Br)cc1C=C1C(=O)Nc2ccccc21 [SU4796, 3-(3-bromo-6-methoxybenzylidenyl)-2-indolinone] | – | IC50 [3]: 30.7 µM; IC50 [4]: 35.8 µM
CN(C)c1ccc(C=C2C(=O)N(C)c3ccccc32)cc1 [SU4952, 3-(4-Dimethylaminobenzylidenyl)-1-methyl-2-indolinone] | 22.6 µM | –
3-[(2-Sulphonylfuran-5-yl)methylene]-2-indolinone sodium salt [SU5428] | – | IC50 [1]: 8.6 µM
Cc1cnc(C=C2C(=O)Nc3ccccc32)s1 [SU5469, 3-[(5-Methylthiazol-2-yl)methylene]-2-indolinone] | – | IC50 [2]: 28 µM
CCc1c(C)[nH]c(C=C2C(=O)Nc3ccccc32)c1C [SU5477, 3-[(4-Ethyl-3,5-dimethylpyrrol-2-yl)methylene]-2-indolinone] | 0.15 µM | –

— patent US6906093B2, “Indolinone combinatorial libraries and related products and methods for the treatment of disease” (Sugen, Inc., priority 1995, dated 2005)
